{"source": "patent US7018806B2", "about": "“Method for identifying endocrine disruptors and kit for carrying out the same” (priority 2001, dated 2006)", "key": {"[1]": {"system": "P450arom mRNA", "details": "20 ng/ml, 48 h", "procedure": "RNA extraction and RT-PCR analysis for P450arom mRNA were performed as described by Ikuyama et al, Clin. Endrocrinol., 48(5):647–654 (1998). Taq DNA polymerase was obtained from Promega (Madison, Wis.) All of the primers for the PCR were synthesized by Amersham Pharmacia Biotech (Osaka, Japan). The PCR products were electrophoresed on 2.0% (w/v) agarose gel containing […] ethidium bromide.\nThe relative expression levels of P450arom vis-à-vis β-actin were determined by the measuring of the intensity of the ethidium bromide."}, "[2]": {"system": "KGN cells", "assay": "Effect on KGN cell growth (cell counting, trypan blue exclusion)", "assay_type": "cell-based, human", "details": "for toxicity to KGN cells: more than 1000 ng/ml, within 24 h", "procedure": "Further, both compounds were dissolved in ethanol, and the final concentration of ethanol in the cell growth medium was 0.1% (w/v).\nMore specifically, the cells were plated onto a 24-well plate at 1×10^4 cells/well in DMEM/F-12 supplemented with 10% (v/v) FCS. […] Cell viability was assessed by the trypan blue exclusion method."}, "[3]": {"system": "KGN cells", "details": "200 ng/ml", "quoted_text": "More specifically, early and late apoptotic changes in the cells were determined using an Annexin V-EGFP/PI Apoptosis Detection Kit, as described by Mu et al, Endocrinol., 142:3590–3597 (2001). […] After the treatment, the cells were washed once with phosphate-buffered saline (PBS), and then incubated with 200 ml of 1× binding buffer comprising 1.0 ml annexin V-EGFP and 1.0 ml propidium iodide (PI) at room temperature for 5 min in the dark. The cells were then scanned using a confocal laser scanning microscopy (Leica TCS-SP system, Leica Microsystems, Heidelberg, Germany) using a dual filter set for FITC & TRITC. The cell membrane was imaged for green fluorescence (stained by annexin V-EGFP) by excitation with the 488 nm line from an argon laser, and the emission was viewed through a 460 to 505 nm band pass filter. The cell nucleus was imaged for red fluorescence (stained by PI) by excitation with the 560 nm line from an argon laser, and the emission was viewed through a 520 to 580 nm band pass filter."}, "[4]": {"system": "P450arom promoter II", "assay": "Luciferase reporter assay of P450arom promoter II in transfected KGN cells", "assay_type": "cell-based, human", "details": "for luciferase activity of P450arom promoter II: 20 ng/ml, 48 h, basic state or stimulated by db-cAMP; for Ad4BP/SF-1-dependent increase of the luciferase activity: co-transfected with Ad4BP expression vector", "procedure": "Thus, to determine whether or not the decreased expression of P450arom mRNA was regulated through promoter II, which is the major promoter in ovarian granulosa cells (Nishi et al, Endocrinol., 142:437–445 (2001); Means et al, Mol. Endocrinol., 5:2005–2013 (1991); and Carlone et al, Mol. Endocrinol., 11:292–304 (1997)), luciferase activity was determined using a 1 kb P450arom promoter II expression construct in the luciferase reporter vector, pGL3 (Mu et al, Mol. Cell. Endocrinol., 181:239–248 (2001)). pGL3 was obtained from Promega (Madison, Wis.). Transfection was performed using SuperFect reagents according to the manufacturer's instructions (Qiagen (Hilden, Germany)). More specifically, 1×10^5 cells were seeded in a 6-well plate 12 h prior to transfection, and transfected with 2.0 μg of DNA. Five nanograms of Renilla luciferase control reporter vector, pRL-CMV, obtained from Promega (Madison, Wis.), as an internal standard, were added per well to assess the transfection efficiency. […] The promoter activity determined is shown as a fold-increase in the luciferase activity normalized for Renilla luciferase activity (termed relative luciferase activity)."}, "[5]": {"system": "Ad4BP", "assay": "Expression level of Ad4BP in KGN cells by RT-PCR", "assay_type": "cell-based, human"}, "[6]": {"target": "T1, aromatase (Homo sapiens, UniProt P11511)", "T1 construct": "endogenous in cells; host or cells: KGN human ovarian granulosa-like tumor cell line (RIKEN RCB 1154)", "T1 sequence (P11511 1-503)": "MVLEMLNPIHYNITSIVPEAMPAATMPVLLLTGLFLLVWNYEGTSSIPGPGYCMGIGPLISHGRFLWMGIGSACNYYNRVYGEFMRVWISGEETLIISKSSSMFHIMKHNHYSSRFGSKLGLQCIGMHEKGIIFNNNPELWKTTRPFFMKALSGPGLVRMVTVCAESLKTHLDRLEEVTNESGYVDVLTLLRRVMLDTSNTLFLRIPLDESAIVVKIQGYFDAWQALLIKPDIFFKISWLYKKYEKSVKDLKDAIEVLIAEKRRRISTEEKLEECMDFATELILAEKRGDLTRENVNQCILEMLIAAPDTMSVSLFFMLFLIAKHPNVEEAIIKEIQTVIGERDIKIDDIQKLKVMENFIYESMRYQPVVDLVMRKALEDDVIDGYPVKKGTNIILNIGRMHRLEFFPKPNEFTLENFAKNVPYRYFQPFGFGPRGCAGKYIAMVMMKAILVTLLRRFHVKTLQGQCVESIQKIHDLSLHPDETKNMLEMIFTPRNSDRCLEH", "assay": "Aromatase activity in KGN cells by [3H]H2O release assay", "assay_type": "cell-based", "details": "for effect on aromatase activity in KGN cells: method of Example 3, FIGS. 5A–5B", "procedure": "Assaying for inhibition or activation of aromatase activity may be carried out by measuring the amount of [^3H]H2O released upon conversion of [1β-^3H]androstenedione to estrone using a modification of the method of Ackerman et al, J. Clin. Endocrinol. Metab., 53:412–417 (1981), or as described in Example 3 below. Briefly, the cells are plated on a petri dish (Falcon 3001) in culture medium with 10% (v/v) fetal calf serum (FCS). At is confluence, the culture medium is replaced with DMEM/Ham's F-12 containing 5.0–10% (v/v) dextran-coated, charcoal-treated FCS (DCS) (Hyclone, Logan Utah), and incubated for another 12 h in the presence or absence of 10^−5–10^−2 M db-cAMP (Wako Pure Chemical Industries Ltd.) and the test compound. After treatment, the cells are further incubated with 12.5 nM [1β-^3H]androstenedione (NEN Life Science Products, Boston, Mass.; SA, 27.5 Ci/mmol) for 6–12 h. After incubation, the medium (2.0 ml) is transferred to tubes containing 1.0 ml ice-cold 30% (w/v) trichloroacetic acid (TCA), and then centrifuged to remove precipitated protein. The cells are harvested using 0.25% (w/v) trypsin-1.0 mM EDTA to determine the protein concentration. The protocol for the extraction of the medium to measure the amount of [^3H]H2O is performed as described by Tanaka et al, Calcif. Tissue Int., 52:107–109 (1993). Finally, the amount of radioactivity in the [^3H]H2O is corrected by subtracting the blank values from each sample. The cell protein content is determined using a micro bicinichoninic acid kit (Pierce Chemical Co., Rockford, Ill.) after the cells are dissolved in 1.0 N NaOH. The aromatase activity is expressed as picomoles per mg cell protein. As a control, the aromatase activities of human granulosa cells (obtained from in vitro fertilization programs), human fibroblast, and HOS cell (human osteoblast-like cell line) (Tanaka et al, supra) can be measured in the same manner.\nMore specifically, aromatase activity was determined by measuring [^3H] H2O release upon conversion of [1β-^3H]androstenedione (A) to estrone (E1), as described by Mu et al, Biochem. Biophys. Res. Commun., 271(3):710–713 (2000). [1β-^3H]androstenedione was purchased from Amersham Pharmacia Biotech (Boston, Mass.).\nThe medium (2.0 ml) was extracted with chloroform, and was then centrifuged. The aqueous supernatant was mixed with 5.0% (w/v) charcoal/0.5% (w/v) dextran, and incubated for 30 min. Thereafter, the mixture was centrifuged and the supernatant was added to 5.0 ml of scintillation fluid and assayed for radioactivity. The amount of radioactivity in [^3H]H2O thus measured was standardized based on the protein concentration, which was determined using a micro BCA kit (Pierece Chemical Co., Rockford, Ill.), and expressed as pmol/mg protein/6 h."}, "[7]": {"system": "marine neogastropods", "details": "cited from earlier work"}, "[8]": {"system": "E2 production in KGN cells", "assay": "Estradiol (E2) production in cultured KGN cells (RIA)", "assay_type": "cell-based, human", "details": "20 ng/ml, 7 days", "procedure": "The media was collected and the E2 content in the media was determined by specific RIA (SRL, Inc. Tokyo, Japan)."}, "[9]": {"system": "Thais clavigera", "details": "rock shell; cited from earlier work"}, "[10]": {"details": "same culture system (KGN cells)"}}}
{"molecule": "tributyltin [TBT]", "values": [{"measurement": "P450arom mRNA levels", "setting": "[1]", "value": "decrease"}, {"measurement": "toxicity to KGN cells", "setting": "[2]", "value": "all of the cells died"}, {"measurement": "apoptotic changes (annexin V positive/PI negative)", "setting": "[3]; 48 h", "value": "early apoptotic cells"}, {"measurement": "apoptotic changes (annexin V positive/PI positive)", "setting": "[3]; 72 h", "value": "late apoptotic cells"}, {"measurement": "luciferase activity of P450arom promoter II", "setting": "[4]", "value": "decreased"}, {"measurement": "Ad4BP/SF-1-dependent increase of the luciferase activity", "setting": "[4]", "value": "significantly suppressed"}, {"measurement": "expression level of Ad4BP", "setting": "[5]", "value": "unchanged"}]}
{"molecule": "N#Cc1ccc(N(Cc2ccc(Br)cc2)n2cnnc2)cc1", "note": "[YM511]", "values": [{"measurement": "extent of suppression of aromatase activity", "setting": "[6]; [10]", "value": "complete suppression"}, {"measurement": "time for suppression of aromatase activity", "setting": "[6]; [10]", "value": "≤ 5", "unit": "min"}]}
{"molecule": "c1ccc2c(c1)c1cccc3ccc4cccc2c4c31", "note": "[Benzopyrene]", "values": [{"measurement": "effect on aromatase activity in KGN cells", "setting": "[6]", "value": "activate aromatase activity"}]}
{"molecule": "ClC1=C(Cl)C2(Cl)C3C(Cl)C=CC3C1(Cl)C2(Cl)Cl", "note": "(stereo not shown) [Heptachlor]", "values": [{"measurement": "effect on aromatase activity in KGN cells", "setting": "[6]", "value": "activate aromatase activity"}]}
{"molecule": "CC1=CC(=O)C=C2CC[C@@H]3[C@H](CC[C@]4(C)C(=O)CC[C@@H]34)[C@@]12C", "note": "[SH489]", "values": [{"measurement": "imposex induction", "setting": "[7]; compared with TBT-exposure", "value": "same imposex-inducing effect"}]}
{"molecule": "triphenyltin [TPT]", "values": [{"measurement": "effect on KGN cell proliferation", "setting": "[2]; less than 50 ng/ml (2 or 20 ng/ml), 7 days", "value": "little effect"}, {"measurement": "toxicity to KGN cells", "setting": "[2]", "value": "all of the cells died"}, {"measurement": "E2 concentration in the medium", "setting": "[8]", "value": "significant decrease"}, {"measurement": "aromatase activity, % of the baseline", "setting": "[6]; 20 ng/ml, 72 h, basal (no db-cAMP)", "value": "about 30%"}, {"measurement": "effect on db-cAMP-induced increase in aromatase activity", "setting": "[6]; 20 ng/ml, with 10^−4 M db-cAMP", "value": "suppressed"}, {"measurement": "effect on the development of imposex", "setting": "[9]", "value": "strong effect"}, {"measurement": "luciferase activity of P450arom promoter II", "setting": "[4]", "value": "decreased"}, {"measurement": "Ad4BP/SF-1-dependent increase of the luciferase activity", "setting": "[4]", "value": "significantly suppressed"}, {"measurement": "expression level of Ad4BP", "setting": "[5]", "value": "unchanged"}]}
{"molecule": "CCCCNC(=O)n1c(NC(=O)OC)nc2ccccc21", "note": "[Benomyl]", "values": [{"measurement": "effect on aromatase activity in KGN cells", "setting": "[6]", "value": "activate aromatase activity"}]}
{"molecule": "CCCC(=O)Nc1ncnc2c1ncn2[C@@H]1O[C@@H]2COP(=O)(O)O[C@H]2[C@H]1OC(=O)CCC", "note": "[db-cAMP, dibutyryl cyclic AMP]", "values": [{"measurement": "increase in aromatase activity over baseline", "setting": "[6]; 10^−4 M db-cAMP", "value": 1.7, "unit": "fold"}, {"measurement": "activation of the P450arom promoter II", "setting": "[4]; 10^−4 M db-cAMP", "value": 1.7, "unit": "fold"}]}
{"molecule": "CC(=O)O[C@]1(C(C)=O)CC[C@H]2[C@@H]3C=C(Cl)C4=CC(=O)[C@@H]5C[C@@H]5[C@]4(C)[C@H]3CC[C@@]21C", "note": "[cyproterone acetate]", "values": [{"measurement": "effect on TBT-induced imposex", "setting": "[7]; in vivo", "value": "completely suppressed"}]}
